From patent publication US4255435A, “Triazole compounds” (priority 1980, dated 1981)
Values after ≈ are worked out from the molar mass of the structure shown.

Experiments:
Format in all cases: in vivo
aphid Megoura viciae = experiment: Aphids on sprayed broad bean plants; conditions: Table 6; sprayed infested broad bean plants, 24 hours
Procedure: Broad bean plants 3 to 5 cm. high were infested with aphids and then sprayed with an aqueous dispersion containing varying concentrations of test compound. Each plant was kept under a lamp glass for 24 hours and then examined. In this way an LD50 value for the compounds was calculated.

[1] = system: eggs of the cabbage root fly (Erioischia brassicae); experiment: Egg hatch of cabbage root fly eggs in test solution; conditions: Table 4; eggs stored six days, egg hatch counted, two replicates; 8640 min
Description: This example illustrates the activity of compounds of the invention against the eggs of the cabbage root fly (Erioischia brassicae).
The eggs were then stored for six days and the egg hatch then counted.

[2] = system: larvae of the codling moth (Cydia pomonella); experiment: Codling moth larvae on sprayed apple (number of strikes); conditions: Table 5, after five days, two replicates, 7200 min
Description: This example illustrates the activity of compounds of the invention against the larvae of the codling moth (Cydia pomonella).
An apple sprayed with test solution was allowed to dry and a perspex ring of 1 inch diameter was attached to the apple. Ten larvae were then placed on the apple surface and contained within the ring by means of a muslin covering. After five days an assessment of mortality was made by counting the number of strikes (i.e. the number of entry holes) made by the larvae.

[3] = system: larvae of the diamond back moth (Plutella maculipennis); experiment: Mortality of larvae of the diamond back moth on treated cabbage leaf; conditions: for ACTIVITY LD50: Table 1, cabbage leaf dipped in test solution, mortality after 24 + 24 hours, two replicates; for LC50: Plutella, 48 h, read-out: Plutella maculipennis LD50 values
Procedure: Ten larvae were placed in a tube together with a square inch of cabbage leaf which had been dipped in the test solution and allowed to dry. After twenty-four hours untreated cabbage was added for food and after a further twenty-four hours an assessment was made of the mortality of the larvae.
Two replicates were carried out for each test compound and test solutions of varying concentrations employed so that an LD50 value could be calculated.

Compound	ACTIVITY LD50 (aphid Megoura viciae) [p.p.m.]	ACTIVITY LD50 [1] [p.p.m.]	ACTIVITY LD50 ([3]; 2880 min) [p.p.m.]	further results
C=C(Br)CSc1nc(C(C)(C)C)nn1C(=O)N(C)C [methyl methyl t-butyl 2-bromoallyl, 1(2)-N,N-dimethylcarbamoyl-3-t-butyl-5-(2-bromoallylthio)-1,2,4-triazole]	0.66	0.57	–	–
1(2)-N,N-dimethylcarbamoyl-3-isopropyl-5-ethylthio-1,2,4-triazole [methyl methyl isopropyl ethyl]	–	–	140	ACTIVITY LD50 [2]: < 10 p.p.m.
1(2)-N,N-dimethylcarbamoyl-3-isopropyl-5-(2-chloroallylthio)-1,2,4-triazole [methyl methyl isopropyl 2-chloroallyl]	1.2	0.27	–	–
1(2)-N,N-dimethylcarbamoyl-3-isopropyl-5-(2-bromoallylthio)-1,2,4-triazole [methyl methyl isopropyl 2-bromoallyl]	–	0.9	–	–
C=C(Cl)CSc1nc(C(C)(C)C)nn1C(=O)N(C)C [methyl methyl t-butyl 2-chloroallyl, 1(2)-N,N-dimethylcarbamoyl-3-t-butyl-5-(2-chloroallylthio)-1,2,4-triazole]	1.6	0.22	–	–
1(2)-N,N-dimethylcarbamoyl-3-s-butyl-5-ethylthio-1,2,4-triazole [methyl methyl s-butyl ethyl]	0.66	–	220	ACTIVITY LD50 [2]: 18 p.p.m.
1(2)-N,N-dimethylcarbamoyl-3-s-butyl-5-methylthio-1,2,4-triazole [methyl methyl s-butyl methyl]	0.32	–	140	ACTIVITY LD50 [2]: 14 p.p.m.
1(2)-N,N-dimethylcarbamoyl-3-s-butyl-5-propylthio-1,2,4-triazole [methyl methyl s-butyl propyl]	0.86	–	320	ACTIVITY LD50 [2]: 10 p.p.m.
CN(C)C(=O)n1cnc(Cl)n1 [1-dimethylcarbamoyl-3-chloro-1,2,4-triazole]	–	–	–	LC50 [3]: > 5000 µg/mL
1(2)-N,N-dimethylcarbamoyl-3-isopropyl-5-propylthio-1,2,4-triazole [methyl methyl isopropyl propyl]	1.6	0.57	220	ACTIVITY LD50 [2]: < 10 p.p.m.
1(2)-N-methyl-N-n-butylcarbamoyl-3-methylthio-5-methyl-1,2,4-triazole	–	–	–	Plutella maculipennis LD50 values ([3]; Table 2, comparative 1,2,4-triazoles, method of Example 9, 2880 min): > 5000 p.p.m.
1(2)-N,N-dimethylcarbamoyl-3-s-butyl-5-prop-2-ynylthio-1,2,4-triazole [methyl methyl s-butyl prop-2-ynyl]	–	–	270	–
Cc1nc(C)n(C(=O)N(C)C)n1 [1-dimethylcarbamoyl-3,5-dimethyl-1,2,4-triazole]	–	–	–	LC50 [3]: > 5000 µg/mL
CCOC(=O)CSc1nc(C)n(C(=O)N(C)C)n1 [1-dimethylcarbamoyl-3-ethoxycarbonylmethylthio-5-methyl-1,2,4-triazole]	–	–	–	LC50 [3]: > 5000 µg/mL
CN(C)C(=O)n1cnc(Sc2ccc([N+](=O)[O-])cc2[N+](=O)[O-])n1 [1-dimethylcarbamoyl-3-(2,4-dinitrophenylthio)-1,2,4-triazole]	–	–	–	LC50 [3]: > 5000 µg/mL
1(2)-N,N-dimethylcarbamoyl-3-s-butyl-5-(2-chloroallylthio)-1,2,4-triazole [methyl methyl s-butyl 2-chloroallyl]	–	0.8	–	–
CN(C)C(=O)n1cncn1 [1-dimethylcarbamoyl-1,2,4-triazole]	–	–	–	LC50 [3]: 1250 µg/mL (≈ 8.92 mM)
